Measurements published in publication PMC3320733 (International Journal of Antimicrobial Agents, 2012).
Where no end group is shown, it is not given here.

Tests used:
Assay type in all cases: cell-based
Bacillus subtilis 168 = tested on: Bacillus subtilis 168
human red blood cells = test: Haemolytic effects on human red blood cells; settings: 1 h
[1] = tested on: Pseudomonas aeruginosa PAO1

Substance | MIC Bacillus subtilis (Bacillus subtilis 168) [µM] | HL50 (concentration at which 50% of red blood cells were lysed) (human red blood cells) [µM] | MIC Pseudomonas aeruginosa [1] [µM]
FFGKVLKLIRKIF-NH2 [DASamP1] | >100 | 25 | >100
FFHHIFRGIVHVGKTIHRLVTG [Piscidin 1] [listing 1 of 2 here] | 12.5 |  | 50
FFHHIFRGIVHVGKTIHRLVTG [Piscidin 1] [listing 2 of 2 here] |  | 20 | 
GFKDLLKGAAKALVKTVLF-NH2 [Ascaphin-8] | 6.25 | 45 | 12.5
GLLGLLGSVVSHVVPAIVGHF-NH2 [Maculatin 1.3] [listing 1 of 2 here] | 25 |  | >100
GLLGLLGSVVSHVVPAIVGHF-NH2 [Maculatin 1.3] [listing 2 of 2 here] |  | 25 | 
